In assay [1] the target is T1, Serine/threonine-protein kinase mTOR (Homo sapiens, UniProt P42345). Kind of assay: Inhibition of mTOR (unknown origin) at 0.5 uM relative to control.
In assay [2] the target is T2, Protein deacetylase HDAC6 (Homo sapiens, UniProt Q9UBN7).
T2 sequence (Q9UBN7 whole entry): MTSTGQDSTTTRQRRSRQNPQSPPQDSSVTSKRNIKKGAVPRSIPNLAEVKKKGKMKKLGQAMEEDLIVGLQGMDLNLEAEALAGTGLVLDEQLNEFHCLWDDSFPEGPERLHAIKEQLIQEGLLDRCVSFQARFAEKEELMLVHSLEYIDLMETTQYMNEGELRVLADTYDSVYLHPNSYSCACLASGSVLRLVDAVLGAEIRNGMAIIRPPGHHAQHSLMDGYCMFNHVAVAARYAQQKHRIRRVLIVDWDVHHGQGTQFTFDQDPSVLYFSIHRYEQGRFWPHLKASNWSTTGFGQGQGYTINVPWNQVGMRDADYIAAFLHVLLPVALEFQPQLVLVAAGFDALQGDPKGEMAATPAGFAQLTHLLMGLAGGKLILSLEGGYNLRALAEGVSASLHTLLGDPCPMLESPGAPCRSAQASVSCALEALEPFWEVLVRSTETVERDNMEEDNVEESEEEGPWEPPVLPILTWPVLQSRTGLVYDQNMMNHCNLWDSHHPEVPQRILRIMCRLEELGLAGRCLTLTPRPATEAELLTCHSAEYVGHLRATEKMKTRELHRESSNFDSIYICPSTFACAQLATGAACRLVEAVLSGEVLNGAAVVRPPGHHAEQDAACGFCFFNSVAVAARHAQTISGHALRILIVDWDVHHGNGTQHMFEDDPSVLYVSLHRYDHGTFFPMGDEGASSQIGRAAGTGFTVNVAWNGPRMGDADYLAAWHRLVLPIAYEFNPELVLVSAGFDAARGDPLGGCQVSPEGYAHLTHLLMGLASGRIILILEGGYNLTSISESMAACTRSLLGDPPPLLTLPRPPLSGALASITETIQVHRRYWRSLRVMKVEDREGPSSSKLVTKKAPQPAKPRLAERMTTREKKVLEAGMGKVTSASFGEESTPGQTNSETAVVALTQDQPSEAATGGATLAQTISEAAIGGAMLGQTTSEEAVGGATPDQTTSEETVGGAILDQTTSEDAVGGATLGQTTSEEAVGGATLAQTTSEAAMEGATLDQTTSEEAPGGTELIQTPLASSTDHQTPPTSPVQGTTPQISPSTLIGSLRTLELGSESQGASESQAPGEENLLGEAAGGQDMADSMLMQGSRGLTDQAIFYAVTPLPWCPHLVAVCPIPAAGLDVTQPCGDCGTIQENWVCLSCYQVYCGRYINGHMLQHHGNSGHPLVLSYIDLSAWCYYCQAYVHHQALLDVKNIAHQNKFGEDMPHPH
The assay can be described thus: Inhibition of HDAC6 (unknown origin).

Assay [3] deals with T1, Serine/threonine-protein kinase mTOR. Kind of assay: Inhibition of mTOR (unknown origin).

For orientation: inhibition means the drop in the measured response relative to a control, in per cent. Higher therefore signals strong suppression. As a reminder, the IC50 is the concentration at which inhibition is half-maximal. High values mean weaker potency, low ones greater potency.

The molecule `COc1cc(OC)c2c(N3CCN(C)CC3)nc(-c3ccc(C(=O)NO)cc3)nc2c1` displayed an inhibition in assay [1] of 67.6%.

Take `O=C(NO)c1ccc(-c2nc(N3CCSCC3)c3ccc(Cl)cc3n2)cc1`: in assay [1], the inhibition came out at 44.9%.

Regarding `COc1cc(OC)c2c(N3CCS(=O)(=O)CC3)nc(-c3ccc(C(=O)NO)cc3)nc2c1`, the inhibition in assay [1] was determined as 34.8%. Turning to `O=C(NO)c1ccc(-c2nc(N3CCCC3)c3ccc(Cl)cc3n2)cc1`, the inhibition in assay [1] stood at 18.3%. On the same count and under the same terms, next, `C[C@H]1COCCN1c1nc(-c2ccc(C(=O)NO)cc2)nc2ccccc12`: 67.3%; `O=C(NO)c1ccc(-c2nc(N3CCSCC3)c3ccccc3n2)cc1`: 44.7%; `COc1cc(OC)c2c(N3CCOC[C@@H]3C)nc(-c3ccc(C(=O)NO)cc3)nc2c1`: 55.4%. Molecule `COc1cc(OC)c2c(N3CCOC[C@H]3C)nc(-c3ccc(C(=O)NO)cc3)nc2c1` returned an inhibition in assay [1] of 57.2%.

In assay [1], `O=C(NO)c1ccc(-c2nc(N3CCOCC3)c3ccccc3n2)cc1` had an inhibition of 60.1%. Molecule `C[C@@H]1COCCN1c1nc(-c2ccc(C(=O)NO)cc2)nc2cc(Cl)ccc12` registered an inhibition in assay [1] of 78.8%. Still for that read-out and setting: next, `CN1CCN(c2nc(-c3ccc(C(=O)NO)cc3)nc3ccccc23)CC1`: 76.8%; `O=C(NO)c1ccc(-c2nc(N3CCCC3)c3ccccc3n2)cc1`: 11.3%.

In turn, `COc1cc(OC)c2c(N3CCSCC3)nc(-c3ccc(C(=O)NO)cc3)nc2c1` returned an inhibition in assay [1] of 33.8%.

`Cn1c(=O)n(-c2ccc(C(C)(C)C#N)cc2)c2c3cc(-c4cnc5ccccc5c4)ccc3ncc21` [DACTOLISIB] came in with an IC50 in assay [2] of 2 nM. Also, in assay [1], the inhibition came to 95.4%. In assay [1], `COc1cc(OC)c2c(N3CCC(F)(F)CC3)nc(-c3ccc(C(=O)NO)cc3)nc2c1` displayed an inhibition of 10.6%. In assay [1], `O=C(NO)c1ccc(-c2nc(N3CCC(F)(F)CC3)c3ccccc3n2)cc1` showed an inhibition of 18.4%. As for `C[C@H]1COCCN1c1nc(-c2ccc(C(=O)NO)cc2)nc2cc(Cl)ccc12`, the inhibition in assay [1] is 82.3%. Consider `O=C(NO)c1ccc(-c2nc(N3CCCCC3)c3ccc(Cl)cc3n2)cc1`, for which the inhibition in assay [1] turned out to be 14.9%. The molecule `O=C(NO)c1ccc(-c2nc(N3CCOCC3)c3ccc(Cl)cc3n2)cc1` had an inhibition in assay [1] of 75.5%. Take `C[C@@H]1COCCN1c1nc(-c2ccc(C(=O)NO)cc2)nc2ccccc12`: the inhibition in assay [1] is 68.5%.

In the case of `O=C(NO)c1ccc(-c2nc(N3CCS(=O)(=O)CC3)c3ccc(Cl)cc3n2)cc1`, the inhibition in assay [1] came to 39.7%. Consider `CCNC(=O)Nc1ccc(-c2nc3c(c(N4CCOC[C@@H]4C)n2)CCN(C2COC2)C3)cc1` [RG-7603], for which the IC50 in assay [3] is 3.8 nM.

`O=C(NO)c1ccc(-c2nc(N3CCS(=O)(=O)CC3)c3ccccc3n2)cc1`: the inhibition in assay [1] was found to be 37.4%. Still for that read-out and setting: next, `O=C(NO)c1ccc(-c2nc(N3CCCCC3)c3ccccc3n2)cc1`: 23.6%.

Molecule `O=C(NO)c1ccc(-c2nc(N3CCC(F)(F)CC3)c3ccc(Cl)cc3n2)cc1` had an inhibition in assay [1] of 18.2%. Same read-out and setting: next, `COc1cc(OC)c2c(N3CCCC3)nc(-c3ccc(C(=O)NO)cc3)nc2c1`: 9.7%. Molecule `COc1cc(OC)c2c(N3CCOCC3)nc(-c3ccc(C(=O)NO)cc3)nc2c1` came in with an inhibition in assay [1] of 48.9%. On the same count and under the same terms, next, `COc1cc(OC)c2c(N3CCCCC3)nc(-c3ccc(C(=O)NO)cc3)nc2c1`: 11.5%.

Values taken from ChEMBL document CHEMBL4811304, “Design, synthesis and biological evaluation of dual mTOR/HDAC6 inhibitors in MDA-MB-231 cells” (Bioorg Med Chem Lett, 2021).
